US10960017B2, “Sorafenib or regorafenib troxacitabine phosphoramidate prodrug combination therapy for liver cancer” (priority 2016, dated 2021)
Like-named read-outs stand apart in the source and are kept apart here.

Experiments:
[1] = system: human hepatocellular carcinoma cell line Hep3B; assay: Combinatorial evaluation in cell culture (Hep3B proliferation, Cell Counting Kit-8, MacSynergy II); format: cell-based; settings: combination with sorafenib, Hep3B cells, 6 days incubation; for anti-proliferative interaction with sorafenib (MacSynergy II classification): 95% confidence; for log volume at 95% confidence (synergy volume calculated by MacSynergy II): log volumes >9 indicate strong synergy
Protocol: General Procedure for Combinatorial Evaluation in Cell Culture
For analysis of the human hepatocellular carcinoma cell line Hep3B, from DSMZ (ACC 93), was used. Hep3B cells were cultured as epithelial-like cells in monolayers in 90% MEM (with Earle's salts)+10% h.i. FBS+2 mM L-glutamine+50 u/ml Penicillin/0.05 mg/ml Streptomycin as culture medium. Confluent cultures were split 1:4 to 1:10 every 3-5 days using trypsin/EDTA, and re-seeded at 0.5−1×10^6 cells/80 cm^2.
Cell culture flask is washed 2 times with 5 ml PBS and PBS discarded. Add 1.5 ml of trypsin and put the flask into the incubator for 3-4 minutes. Shake the flask and add 10 ml of DMEM, 10% FCS, 50 μ/ml Penicillin/0.05 mg/ml Streptomycin without phenol red. The cells were counted using the Scepter cell counter, Hep3B cells were diluted to 20×10^3 cells/ml in complete cell medium without phenol red. 100 μl cell suspension/well was seeded in 96-well cell assay plates. Two replicate plates for each combination.
Test compounds were tested at nine concentrations, either 5 μM to 0.00076 μM or 10 μM to 0.0015 μM, in a 1:3 dilution series. Sorafenib was tested at seven concentrations, 20 μM to […], in a 1:2 dilution series. The four dilution plates were prepared with the Echo instrument.
The compound dilutions were 2 times the desired final concentrations. The volume in the dilution plates in each well are 125 μl of medium with compounds.
100 μl from the dilution plate with compounds in the different concentrations were transferred to the corresponding well of the cell assay plate with 100 μl, (200 μl/well in total volume). Incubate the plates for 6 days, at 37° C., 5% CO2.
10 μl of CCK Kit-8 was added to each well using a multi-channel pipette (submerging the tips below the surface in each well). Plates were incubated for 4 hours at 37° C., 5% CO2.
The plate was read in the spectrophotometer at a wavelength of 450 nm, with a reference filter of 650 nm. Average absorbance was >1 to <3 for the vehicle treated cell controls.
Raw data from the two plates of each combination were entered into the Mac Synergy II shareware where the combined effect was calculated and plotted in a 3D dose-response surface graph. Theoretical additive interactions are calculated from the dose response curves for each drug individually. Calculated additive surface is subtracted from experimentally determined dose-response surfaces to reveal regions of non-additive activity. The final results are given as synergy or antagonism volumes (μM^2%) according to guide lines given in the manual for MacSynergy II:
Synergy volumes: • 1. Values of synergy or antagonism under 25 μM^2% (log volumes <2) at 95% confidence should be regarded as insignificant and are probably not important. • 2. Values between 25 μM^2% and 50 μM^2% (log volumes >2 and <5) should be considered a minor but significant amount of synergy. • 3. Values between 50 μM^2% and 100 μM^2% (log volumes >5 and <9) indicate moderate synergy or antagonism. This interaction may be important in vivo. • 4. Values over 100 μM^2% (log volumes >9) indicate strong synergy and are probably important in vivo.

[2] = cited from earlier work

Structure (SMILES)	anti-proliferative interaction with sorafenib (MacSynergy II classification) [1]	log volume at 95% confidence (synergy volume calculated by MacSynergy II) [1]	also measured
CCC[C@H](C)OC(=O)[C@H](C)NP(=O)(OC[C@H]1OC[C@@H](n2ccc(N)nc2=O)O1)Oc1ccccc1 (single isomer, unassigned) [Example 1]	strong anti-proliferative synergy	76	
CC[C@@H](C)OC(=O)[C@H](C)NP(=O)(OC[C@H]1OC[C@@H](n2cc(F)c(N)nc2=O)O1)Oc1ccccc1 (single isomer, unassigned) [Example 2]	strong anti-proliferative synergy	11	
CCCC(CCC)COC(=O)[C@H](C)NP(=O)(OC[C@H]1OC[C@@H](n2ccc(N)nc2=O)O1)Oc1ccccc1 (single isomer, unassigned) [Example 3]	strong anti-proliferative synergy	32	
CCC[C@H](C)OC(=O)[C@H](C)NP(=O)(OC[C@H]1OC[C@@H](n2ccc(N)nc2=O)O1)Oc1ccc(Br)cc1 (single isomer, unassigned) [Example 4]	strong anti-proliferative synergy	40	
CC[C@@H](C)OC(=O)[C@@H](NP(=O)(OC[C@H]1OC[C@@H](n2ccc(N)nc2=O)O1)Oc1ccccc1)C(C)C (single isomer, unassigned) [Example 5]	strong anti-proliferative synergy	46	
CNC(=O)c1cc(Oc2ccc(NC(=O)Nc3ccc(Cl)c(C(F)(F)F)c3)c(F)c2)ccn1 [Regorafenib monohydrate, 4-[4-({[4-chloro-3-(trifluoromethyl)phenyl]carbamoyl}amino)-3-fluorophenoxy]-N-methylpyridine-2-carboxamide monohydrate]			solubility ([2]; acetone): sparingly soluble; solubility ([2]; acetonitrile): slightly soluble; solubility ([2]; aqueous media): practically insoluble; solubility ([2]; ethanol): slightly soluble; solubility ([2]; ethyl acetate): slightly soluble; solubility ([2]; methanol): slightly soluble
CNC(=O)c1cc(Oc2ccc(NC(=O)Nc3ccc(Cl)c(C(F)(F)F)c3)cc2)ccn1.Cc1ccc(S(=O)(=O)O)cc1 [Sorafenib tosylate, 4-(4-{3-[4-Chloro-3(trifluoromethyl)phenyl]ureido}phenoxy) N-methylpyridine-2-carboxamide 4-methylbenzenesulfonate]			solubility ([2]; PEG 400): soluble; solubility ([2]; aqueous media): practically insoluble; solubility ([2]; ethanol): slightly soluble
